Two compounds from patent US5488051A, “Substituted 5,6-dihydro-5-oxo-1,4-dithiino-(2,3-d)-pyridazine-2,3-dicarbonitriles, compositions containing them and their use as antimicrobials” (The Dow Chemical Company, priority 1994, dated 1996) can be followed below.

Converted amounts (≈) assume the structure as drawn. Where two headings read alike, the source gives them in different places.

For assay [1], the system named is Penicillium chrysogenum (Pc). The assay is described as follows: MIC for Penicillium chrysogenum, malt yeast agar. The class given is cell-based, Penicillium chrysogenum ATCC 9480. To be noted: malt yeast agar; 30° C., 72 hours for fungi; read-out: Minimum Inhibitory Concentration (MIC), PC. The procedure, abridged: (§1)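 Agar dilution on malt yeast agar with compound (from 1% acetone/water solution) at final 0, 1.0, 2.5, 5, 10, 25, 50, 100, 250, 500 ppm. Plates inoculated by replicator with saline suspensions (1:9 diluted) of 7-day cultures; incubated at 30 °C, read at 48 h for yeast and 72 h for fungi.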

Another assay relates to Saccharomyces cerevisiae. Kind of assay: MIC for Saccharomyces cerevisiae, malt yeast agar. It is filed as cell-based, Saccharomyces cerevisiae ATCC 4105. The conditions noted are these: malt yeast agar, 30° C., 48 hours for yeast, read-out: Minimum Inhibitory Concentration (MIC), Sc. A digest of the protocol: as §1
In the next assay the test system is Bacillus subtilis (Bs). Kind of assay: MIC for Bacillus subtilis, nutrient agar. The class given is cell-based, Bacillus subtilis ATCC 8473. To be noted: 30° C., 48 hours, read-out: Minimum Inhibitory Concentration (MIC), Bs. A digest of the protocol:
(§2)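 Growth inhibition scored visually after 48 h at 30° C on nutrient agar plates (pH 6.8 and pH 8.2) into which compound had been incorporated at 0–500 ppm final. Inocula of 10^8 CFU/mL were applied by replicator.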

Assay [2] deals with Enterobacter aerogenes (Ea). Kind of assay: MIC for Enterobacter aerogenes, nutrient agar. The class given is cell-based, Enterobacter aerogenes ATCC 13048. To be noted: Klebsiella aerogenes, nutrient agar, 30° C., 48 hours, read-out: Minimum Inhibitory Concentration (MIC), Ea. The procedure, abridged:
as §2

The subject of the next assay is Escherichia coli (Ec). Kind of assay: MIC for Escherichia coli, nutrient agar. The conditions noted are these: 30° C., 48 hours, read-out: Minimum Inhibitory Concentration (MIC), Ec. The class given is cell-based, Escherichia coli ATCC 11229. The procedure, abridged:
as §2

For the compound `Cc1ccc(-n2ncc3c(c2=O)SC(C#N)=C(C#N)S3)cc1` [B, 5,6-dihydro-6-(4-methylphenyl)-5-oxo-1,4-dithiino-(2,3-d)-pyridazine-2,3-dicarbonitrile], the MIC in assay [1] is 25 µg/mL (≈ 77.1 µM); in the assay on Saccharomyces cerevisiae, under 10 µg/mL; in the assay on Bacillus subtilis (Bs) (pH 6.8, nutrient agar) it was under 10 µg/mL; in the assay with Bacillus subtilis (Bs) (pH 8.2, nutrient agar), 25 µg/mL (≈ 77.1 µM); in assay [2] (pH 6.8) it was over 500 µg/mL; in assay [2] (pH 8.2), over 500 µg/mL. The MIC in the assay with Escherichia coli (Ec) (pH 6.8, nutrient agar) was 50 µg/mL (≈ 154 µM); in the assay on Escherichia coli (Ec) (pH 8.2, nutrient agar), over 500 µg/mL.
With `N#CC1=C(C#N)Sc2c(cnn(-c3ccc(Br)cc3)c2=O)S1` [C, 5,6-dihydro-6-(4-bromophenyl)-5-oxo-1,4-dithiino-(2,3-d)-pyridazine-2,3-dicarbonitrile], the MIC is 25 µg/mL (≈ 64.2 µM) in assay [1]; 10 µg/mL (≈ 25.7 µM) in the assay on Saccharomyces cerevisiae; under 10 µg/mL in the assay on Bacillus subtilis (Bs) (pH 6.8, nutrient agar); 100 µg/mL (≈ 257 µM) in the assay with Bacillus subtilis (Bs) (pH 8.2, nutrient agar); over 500 µg/mL in assay [2] (pH 6.8); over 500 µg/mL in assay [2] (pH 8.2). The MIC in the assay with Escherichia coli (Ec) (pH 6.8, nutrient agar) was 100 µg/mL (≈ 257 µM); with Escherichia coli (Ec) (pH 8.2, nutrient agar), over 500 µg/mL.
